{"source": "patent US11174462B2", "about": "“Microfluidic model of the blood brain barrier” (EMULATE, Inc., priority 2015, dated 2021)", "key": {"neurons seeded in chip": {"tested_on": "neurons seeded in chip", "format": "cell-based, human"}, "[1]": {"tested_on": "cell monolayers with tight junctions", "conditions": "passive paracellular diffusion only; cited from earlier work"}, "iBMEC barrier": {"tested_on": "iBMEC barrier", "assay": "TEER measurement of iBMEC barrier function on TEER chips under flow", "format": "cell-based, human", "conditions": "exposure of chips under flow to TNFa, FIG. 14A", "experimental": "Cells were plated on tall channel PDMS chips equipped with incorporated gold electrodes on each channel (see FIG. 13A). Post seeding of BMECs, transendothelial electrical resistance was measured by connecting the electrodes to an EVOM2 voltohmmeter (see FIG. 13B). […] The “damaged” chip was a failure due to the TEER-Chips being a prototype.\nHigher TEER values generally indicate a tighter barrier, which is typically desirable for a blood-brain barrier."}, "[2]": {"tested_on": "BMECs seeded on a microfluidic device", "assay": "Paracellular permeability assay with Dextran-FITC on chip", "format": "cell-based, human", "conditions": "TNFa exposure, FIG. 14B", "experimental": "Albumin or Dextran conjugated to a fluorescent probe (e.g., FITC or TRITC) are frequently used to monitor changes in leakage, and thus barrier function. In this case, Dextran-FITC, a green fluorescent molecule of 4 KDa, or sodium fluorescein (a 0.3 KDa molecule), was added to the bottom (“blood side”) channel. Paracellular permeability was calculated by measuring the permeability of the fluorescent molecule on the Top (“brain side”) channel. […] FIG. 14B involves TNF-alpha exposure, but the readout is membrane permeability as measured by Dextran-FITC."}}, "note": "“Also recorded” adds a separate entry of the source."}
{"compound": "NC1=N[C@H](O)[C@H]2[C@H]3O[C@]4(O)O[C@@H]([C@@H](O)[C@@]2(N1)[C@@H]4O)[C@]3(O)CO", "note": "[TTX, tetrodotoxin]", "values": [{"measurement": "effect on neuronal calcium flux activity", "setting": "neurons seeded in chip", "value": "ablates this activity"}]}
{"compound": "Lucifer Yellow", "values": [{"measurement": "permeability across cell monolayers (in words)", "setting": "[1]", "value": "low permeability"}]}
{"compound": "TNFa", "values": [{"measurement": "effect on iBMEC barrier function (TEER)", "setting": "iBMEC barrier", "value": "weakening of barrier function; also recorded: decrease in barrier function and TEER"}, {"measurement": "effect on permeability to dextran-FITC through the semi-porous membrane", "setting": "[2]", "value": "increase in permeability"}]}
